The values that follow come from paper PMC6471485, “Selective Inhibitors of a Human Prolyl Hydroxylase (OGFOD1) Involved in Ribosomal Decoding” (Chemistry (Weinheim an Der Bergstrasse, Germany), 2019).

This experiment has as its target T1, NO66 (Homo sapiens, UniProt Q9H6W3).
T1 construct: 116-641 were cloned into pFB-LIC-Bse; His (N); made in house; host or cells: Sf9 insect cells
T1 sequence (Q9H6W3 116-641 limits assumed): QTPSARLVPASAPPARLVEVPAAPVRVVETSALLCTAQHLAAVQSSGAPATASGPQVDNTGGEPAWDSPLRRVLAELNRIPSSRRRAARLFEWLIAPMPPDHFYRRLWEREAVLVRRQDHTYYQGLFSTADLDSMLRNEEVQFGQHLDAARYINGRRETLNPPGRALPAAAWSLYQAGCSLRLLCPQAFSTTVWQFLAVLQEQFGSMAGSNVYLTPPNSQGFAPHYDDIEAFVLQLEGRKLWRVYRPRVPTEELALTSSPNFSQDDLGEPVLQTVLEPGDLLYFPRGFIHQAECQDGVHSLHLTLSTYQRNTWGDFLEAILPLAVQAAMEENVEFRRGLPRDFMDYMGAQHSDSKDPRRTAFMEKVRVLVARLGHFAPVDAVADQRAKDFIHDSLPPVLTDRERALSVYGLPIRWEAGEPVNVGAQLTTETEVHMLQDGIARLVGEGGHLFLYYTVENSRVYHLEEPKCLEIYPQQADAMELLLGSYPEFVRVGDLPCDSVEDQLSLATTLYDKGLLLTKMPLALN
The experiment can be described thus: NO66 IC50 determination, RapidFire MS. Format: biochemical. As to the method:
reactions were quenched after 4 min. KDM4A inhibition was tested as described previously using a formaldehyde dehydrogenase (FDH) assay.[9] JARID1B and JARID1C inhibition was tested as described previously using reported AlphaScreen-based assays.[10] MINA531-464 and NO66116-641 were cloned into pFB-LIC-Bse, and the N-terminal His-tagged proteins were produced in Sf9 insect cells. The MINA53 peptide substrate Rpl27a […]
(Gly31 – Pro49 […]) and the NO66 peptide substrate Rpl8
(Asn205 – Thr224 […]) were synthesized by Peptide Protein
Research Ltd (Fareham, Hampshire, UK) to >95% purity. IC50 determinations were performed in 384-well polypropylene plates (Greiner Bio One, Cat Number 781096), and compound dispenses were performed using an ECHO 550 acoustic dispenser (Labcyte, Sunnyvale, CA). […]
RapidFire integrator software (Agilent). Percent conversion was calculated in Excel, and IC50 curves were generated using Prism v. […]
Assays consisted of enzyme (2 µM), inhibitor (200 µM), MnCl2 (50 µM), and SYPRO Orange (1:5000 dilution), all prepared in 50 mM HEPES, pH 7.5. […] An Opticon thermal cycler (MJ Research Inc) was used to control temperature and measure fluorescence. […]
CPMG Binding Experiments: Binding of the inhibitors to the proteins was monitored using Carr-Purcell-Meiboom-Gill (CPMG)-edited 1H spectra. […]

Broadly, the IC50 is the concentration needed to halve the response being measured. Read a low IC50 as greater potency in that assay. For `Cn1c(O)c(C(=O)CCc2cccs2)c(=O)n(C)c1=O` [compound 42], the IC50 was over 100 µM.
The result for `Cn1c(O)c(C(=O)CCc2ccccc2)c(=O)n(C)c1=O` [compound 26] reads over 100 µM.
